Measured values published in patent publication US20250011881A1, “MYC-HSF1 DUAL AMPLIFICATION AS A BIOMARKER FOR CANCER TREATMENT” (The Trustees of Indiana University, priority 2023, published 2025).
Several values for one entry are separate records, joined by “and”; a condition that tells them apart may be missing. Equal entries are not always repeated. Structures can show the parent of a compound that is named as a salt.

test system: ovarian cancer cells with (OVCAR8, OVCAR4) or without (OVSAHO, CAOV3) MYC-HSF1 amplification; test: Epigenetic inhibitor drug screen, cell viability (Cell Titer Blue); type: cell-based; settings: not given

SMILES	Non Amp - AMP (POC) 10 uM
NC(=O)c1ncn([C@@H]2O[C@H](CO)[C@@H](O)[C@H]2O)c1N [AICAR]	11.27 POC
CCC(=O)CCCCC[C@@H]1NC(=O)[C@H]2CCCCN2C(=O)[C@H]([C@@H](C)CC)NC(=O)[C@H](Cc2cn(OC)c3ccccc23)NC1=O [Apicidin]	45.97 POC
CCN1CCN(C(=O)Cc2ccc(Nc3ncc(F)c(Nc4ccc(C(=O)Nc5ccccc5Cl)cc4)n3)cc2)CC1 [Aurora A Inhibitor I]	8.339 POC
O=C(Nc1cccc(Nc2nccc(Nc3cccc(C(F)(F)F)c3)n2)c1)C1CC1 [Aurora Kinase Inhibitor III]	−0.3226 POC
C=C1C(=O)O[C@@H](CCC)[C@@H]1C(=O)O [Butyrolacetone 3]	9.966 POC

same assay, conditions: 10 uM, 48 hrs; average relative cell viability (vs 1% DMSO) of non-amplified cells (OVSAHO, CAOV3) minus that of MYC-HSF1 amplified cells (OVCAR8, OVCAR4); positive = greater response in amplified cells

SMILES	Non Amp - AMP (POC) 10 uM
Cc1csc(-c2nnc(Nc3ccc(Oc4ncccc4-c4ccnc(N)n4)cc3)c3ccccc23)c1 [AMG-900]	4.126 POC
CC(C)[C@H](C(=O)Nc1ccc(C(=O)NO)cc1)c1ccccc1 [AR-42 (OSU-HDAC42)]	−6.14 POC
O=C(Nc1c[nH]nc1-c1nc2ccc(CN3CCOCC3)cc2[nH]1)NC1CC1 [AT9283]	−1.133 POC
N[C@@H]1CCCN(c2c(/C=C3\SC(=O)NC3=O)cccc2-c2ccccc2)C1 [AZD1208]	10.38 POC
Cc1cc(Nc2nc(N[C@@H](C)c3ncc(F)cn3)ncc2Cl)[nH]n1 [AZD1480]	0.4361 POC
COC1CCN(C(=O)c2cc(Cc3n[nH]c(=O)c4ccccc34)ccc2F)CC1 [AZD2461]	9.593 POC
COc1nnc2ccc(N3CCC(c4ccc(OCCN5CCN(C)C(=O)[C@H]5C)cc4)CC3)nn12 [AZD 5153]	11.52 POC
CCN(CC)Cc1cc(Nc2ccnc3cc(Cl)ccc23)ccc1O [Amodiaquine dihydrochloride dihydrate]	−0.1196 POC
Cc1cc(-c2nc(-c3ccc(OC(F)(F)F)cc3)no2)nn1Cc1ccnc(N2CCN(C3CC3)CC2)c1 [BAY 87-2243]	11.79 POC
Cn1cc(CCn2cnc(-c3cnn(C)c3)c2-c2ccc(C#N)cc2)cn1 [BAZ2-ICR]	13.57 POC
Nc1ccccc1NC(=O)c1cnccn1 [BG45]	25.74 POC
COc1cc(-c2cn(C)c(=O)c3cnccc23)cc(OC)c1CN(C)C [BI-7273]	−8.336 POC
COc1cc(-c2cn(C)c(=O)c3cnccc23)c(OC)cc1CN(C)C [BI-9564]	11 POC
COc1cc2nc(N3CCCN(C)CC3)nc(NC3CCN(Cc4ccccc4)CC3)c2cc1OC [BIX 01294]	−4.372 POC
CCOC(=O)C1=CN(Cc2ccccc2)C=C(C(=O)OCC)C1c1ccccc1 [BML-278]	4.191 POC
Cn1ncnc1[C@H]1c2n[nH]c(=O)c3cc(F)cc(c23)N[C@@H]1c1ccc(F)cc1 [BMN 673]	−11.28 POC
Cn1ncnc1C1c2n[nH]c(=O)c3cc(F)cc(c23)NC1c1ccc(F)cc1 (stereo not shown) [BMN-673 8R, 9S]	−2.489 POC
Cc1ccc2nc(NCCN)c3ncc(C)n3c2c1 [BMS-345541 (free base)]	19.27 POC

SMILES	Non Amp - AMP (POC) 10 uM
CCn1c(C(=O)N(C2CC2)C2CC2)cc2c3c(ncn3C)c(Nc3cc(C)n(C)n3)nc21 [BMS-911543]	1.85 POC
O=C(NO)c1cccc(C(=O)NCCc2ccccc2)c1 [BRD73954]	10.33 POC
CCOC(=O)c1ccc(NC(=O)O[C@H]2[C@H](OC(=O)Nc3ccc4c(c3)OCO4)[C@@H](OC(=O)Nc3ccc4c(c3)OCO4)[C@@H](OC)O[C@@H]2CO)cc1 [BRD 7552]	−0.1565 POC
CC1(C)C(=O)N=C2C1=C(O)C(=O)c1ccccc12 [BVT 948]	22.87 POC
CCN(CCO)CCCOc1ccc2c(Nc3cc(CC(=O)Nc4cccc(F)c4)[nH]n3)ncnc2c1 [Barasertib (AZD1152-HQPA), Barasertib]	−16.49 POC
COC(=O)[C@]12CCC(C)(C)C[C@H]1[C@H]1C(=O)C=C3[C@@]4(C)C=C(C#N)C(=O)C(C)(C)[C@@H]4CC[C@@]3(C)[C@]1(C)CC2 [Bardoxolone methyl]	6.087 POC
CCS(=O)(=O)N1CC(CC#N)(n2cc(-c3ncnc4[nH]ccc34)cn2)C1 [Baricitinib (LY3009104, INCB028050), Baricitinib]	−2.641 POC
CCS(=O)(=O)N1CC(CC#N)(n2cc(-c3ncnc4[nH]ccc34)cn2)C1.O=P(O)(O)O [Baricitirib phosphate]	7.373 POC
O=C(/C=C/c1cccc(S(=O)(=O)Nc2ccccc2)c1)NO [Belinostat (PXD101), Belinostat]	12.55 POC
NC(=O)c1ccccc1 [Benzamide]	−5.576 POC
CN(C)c1ccc(C(=O)NCCCCCC(=O)NO)cc1 [CAY10398]	48.61 POC
COCCCn1c(N)c(C(=O)NC2CCCC2)c2nc3ccccc3nc21 [CAY10591]	11.91 POC
O=C(Cc1ccccc1)Nc1ccc2oc(-c3ccc(Cl)cc3Cl)nc2c1 [CAY10722]	−11.2 POC
O=C(/C=C/c1cccc(C(=O)NO)c1)NO [CBHA]	37.53 POC
CN(C)c1ccc(-c2nc3ncc(Cl)c(N4CCN(CC(=O)Nc5nccs5)CC4)c3[nH]2)cc1 [CCT129202]	2.662 POC
Cc1cc(CN2CCN(c3c(Br)cnc4nc(-c5ccc(N6CCN(C)CC6)cc5)[nH]c34)CC2)no1 [CCT137690]	9.076 POC
CN1CCN(c2cccc(Nc3nc4c(-c5ccc(S(C)(=O)=O)cc5)cccn4n3)c2)CC1 [CEP-33779]	15.1 POC

same assay, conditions: 10 uM, 48 hrs; average relative cell viability (vs 1% DMSO) of non-amplified cells (OVSAHO, CAOV3) minus that of MYC-HSF1 amplified cells (OVCAR8, OVCAR4); positive = greater response in amplified cells; 10 µM

SMILES	Non Amp - AMP (POC) 10 uM
N#C/C(=C\c1ccc(-c2cc(Cl)ccc2Cl)o1)C(=O)Nc1cccc2ncccc12 [AGK 2]	24.17 POC
O=C(Nc1ccc2c(O)cc(S(=O)(=O)O)cc2c1)Nc1ccc2c(O)cc(S(=O)(=O)O)cc2c1 [AMI-1]	19.64 POC and 18.34 POC
CCCCCCCCCCCCCCCc1cccc(O)c1C(=O)O [Anacardic acid]	17.46 POC
CC[C@@H]1C(=O)N(C)c2cnc(Nc3ccc(C(=O)NC4CCN(C)CC4)cc3OC)nc2N1C1CCCC1 [BI-2536]	15.69 POC
Nc1ccccc1NC(=O)CCCCCCC(=O)Nc1ccccc1 [BML-210]	30.7 POC
CCOC(=O)Nc1cc(-c2ccc(C)c(NS(C)(=O)=O)c2)nn2c(C)nnc12 [Bromosporine]	15.35 POC and 21.43 POC
Nc1ccc(S(=O)(=O)NCCc2ccccc2)cc1 [C-7280948]	13.45 POC
CC(C)(C)OC(=O)Nc1ccc(-c2cc(C(=O)NCCCCCCC(=O)NO)no2)cc1 [CAY10603]	43.89 POC and 29.05 POC
CCOC(=O)NCCCC(=O)NCCc1ccccc1 [CAY10683, Santacruzamate A]	18.98 POC

same assay, conditions: 10 uM, 48 hrs; average relative cell viability (vs 1% DMSO) of non-amplified cells (OVSAHO, CAOV3) minus that of MYC-HSF1 amplified cells (OVCAR8, OVCAR4); positive = greater response in amplified cells; listed as AGK2, 10 µM

SMILES	Non Amp - AMP (POC) 10 uM
N#C/C(=C\c1ccc(-c2cc(Cl)ccc2Cl)o1)C(=O)Nc1cccc2ncccc12 [AGK 2]	19.96 POC

same assay, conditions: 10 uM, 48 hrs; average relative cell viability (vs 1% DMSO) of non-amplified cells (OVSAHO, CAOV3) minus that of MYC-HSF1 amplified cells (OVCAR8, OVCAR4); positive = greater response in amplified cells; listed as Anacardic Acid, 10 µM

SMILES	Non Amp - AMP (POC) 10 uM
CCCCCCCCCCCCCCCc1cccc(O)c1C(=O)O [Anacardic acid]	5.093 POC

same assay, conditions: 10 uM, 48 hrs; average relative cell viability (vs 1% DMSO) of non-amplified cells (OVSAHO, CAOV3) minus that of MYC-HSF1 amplified cells (OVCAR8, OVCAR4); positive = greater response in amplified cells; listed as BI 2536, 10 µM

SMILES	Non Amp - AMP (POC) 10 uM
CC[C@@H]1C(=O)N(C)c2cnc(Nc3ccc(C(=O)NC4CCN(C)CC4)cc3OC)nc2N1C1CCCC1 [BI-2536]	−3.682 POC

same assay, conditions: 10 uM, 48 hrs; average relative cell viability (vs 1% DMSO) of non-amplified cells (OVSAHO, CAOV3) minus that of MYC-HSF1 amplified cells (OVCAR8, OVCAR4); positive = greater response in amplified cells; listed as BML-210(CAY10433), 10 µM

SMILES	Non Amp - AMP (POC) 10 uM
Nc1ccccc1NC(=O)CCCCCCC(=O)Nc1ccccc1 [BML-210]	14.33 POC

same assay, conditions: 10 uM, 48 hrs; average relative cell viability (vs 1% DMSO) of non-amplified cells (OVSAHO, CAOV3) minus that of MYC-HSF1 amplified cells (OVCAR8, OVCAR4); positive = greater response in amplified cells; listed as C7280948, 10 µM

SMILES	Non Amp - AMP (POC) 10 uM
Nc1ccc(S(=O)(=O)NCCc2ccccc2)cc1 [C-7280948]	0.5735 POC

same assay, conditions: 10 uM, 48 hrs; average relative cell viability (vs 1% DMSO) of non-amplified cells (OVSAHO, CAOV3) minus that of MYC-HSF1 amplified cells (OVCAR8, OVCAR4); positive = greater response in amplified cells; listed as Santacruzamate A (CAY10683), 10 µM

SMILES	Non Amp - AMP (POC) 10 uM
CCOC(=O)NCCCC(=O)NCCc1ccccc1 [CAY10683, Santacruzamate A]	−0.9653 POC
